Data: ChEMBL document CHEMBL1158310, “Cytotoxic Degradation Product of Physostigmine” (1996)
In brackets after ≈: the same amount, converted by molar mass. Activity calls are given as the source filed them. No cut-off for these calls is given here.

Key:
[1] = Cytotoxicity against human KBVIN cells in presence of vinblastine; assay type: functional; settings: read-out: ED50 (the source's name)
[2] = test system: LNCaP; experiment: Cytotoxicity against human LNCAP cells; assay type: functional; settings: read-out: ED50 (the source's name)
[3] = test system: ZR-75-1; experiment: Cytotoxicity against human ZR-75-1 cells; assay type: functional, cell-based
[4] = Antimitotic activity in rat ASK cells assessed as astrocyte generation at […] by light microscopy; assay type: functional; settings: read-out: ED50 (the source's name)
[5] = test system: KB; experiment: Cytotoxicity against human KB cells; assay type: functional; settings: read-out: ED50 (the source's name)
[6] = Cytotoxicity against human KBVIN cells in absence of vinblastine; assay type: functional; settings: read-out: ED50 (the source's name)
[7] = test system: Lu1; experiment: Cytotoxicity against human Lu1 cells; assay type: functional; settings: read-out: ED50 (the source's name)

CCNC1=CC2=N[C@H]3N(C)CC[C@@]3(C)C2=CC1=O
EC50 [1]: 0.6 µg/mL
EC50 [2]: 0.3 µg/mL (≈ 1.22 µM)
Activity [3]: inactive
EC50 [4]: 1.9 µg/mL (≈ 7.74 µM)
EC50 [5]: 0.2 µg/mL (≈ 0.815 µM)
EC50 [6]: 0.8 µg/mL (≈ 3.26 µM)
EC50 [7]: 1.5 µg/mL (≈ 6.11 µM)

CN1CC[C@@]2(C)C3=CC(=O)C(=O)C=C3N(C)[C@@H]12 [RUBRESERINE]
EC50 [1]: > 20 µg/mL
EC50 [2]: 13.1 µg/mL (≈ 56.4 µM)
Activity [3]: Active
EC50 [4]: > 20 µg/mL
EC50 [5]: > 20 µg/mL
EC50 [6]: 16.8 µg/mL (≈ 72.3 µM)
EC50 [7]: > 20 µg/mL
